Measurements taken from PMC8038090, “Xanthine Oxidase Inhibitors from Filipendula ulmaria (L.) Maxim. and Their Efficient Detections by HPTLC and HPLC Analyses” (Molecules, 2021).
Converted amounts (≈) assume the structure as drawn. “Also recorded” adds a separate entry of the source. Like-named read-outs stand apart in the source and are kept apart here.

Tests used:
[1] = target: xanthine oxidase (XO) (Bos taurus, UniProt P80457); assay: Xanthine oxidase inhibitory activity by UV spectroscopy (uric acid formation at 293 nm); assay type: biochemical
Chain of xanthine oxidase (XO) (Bos taurus, UniProt P80457) (P80457 2-1332 limits assumed): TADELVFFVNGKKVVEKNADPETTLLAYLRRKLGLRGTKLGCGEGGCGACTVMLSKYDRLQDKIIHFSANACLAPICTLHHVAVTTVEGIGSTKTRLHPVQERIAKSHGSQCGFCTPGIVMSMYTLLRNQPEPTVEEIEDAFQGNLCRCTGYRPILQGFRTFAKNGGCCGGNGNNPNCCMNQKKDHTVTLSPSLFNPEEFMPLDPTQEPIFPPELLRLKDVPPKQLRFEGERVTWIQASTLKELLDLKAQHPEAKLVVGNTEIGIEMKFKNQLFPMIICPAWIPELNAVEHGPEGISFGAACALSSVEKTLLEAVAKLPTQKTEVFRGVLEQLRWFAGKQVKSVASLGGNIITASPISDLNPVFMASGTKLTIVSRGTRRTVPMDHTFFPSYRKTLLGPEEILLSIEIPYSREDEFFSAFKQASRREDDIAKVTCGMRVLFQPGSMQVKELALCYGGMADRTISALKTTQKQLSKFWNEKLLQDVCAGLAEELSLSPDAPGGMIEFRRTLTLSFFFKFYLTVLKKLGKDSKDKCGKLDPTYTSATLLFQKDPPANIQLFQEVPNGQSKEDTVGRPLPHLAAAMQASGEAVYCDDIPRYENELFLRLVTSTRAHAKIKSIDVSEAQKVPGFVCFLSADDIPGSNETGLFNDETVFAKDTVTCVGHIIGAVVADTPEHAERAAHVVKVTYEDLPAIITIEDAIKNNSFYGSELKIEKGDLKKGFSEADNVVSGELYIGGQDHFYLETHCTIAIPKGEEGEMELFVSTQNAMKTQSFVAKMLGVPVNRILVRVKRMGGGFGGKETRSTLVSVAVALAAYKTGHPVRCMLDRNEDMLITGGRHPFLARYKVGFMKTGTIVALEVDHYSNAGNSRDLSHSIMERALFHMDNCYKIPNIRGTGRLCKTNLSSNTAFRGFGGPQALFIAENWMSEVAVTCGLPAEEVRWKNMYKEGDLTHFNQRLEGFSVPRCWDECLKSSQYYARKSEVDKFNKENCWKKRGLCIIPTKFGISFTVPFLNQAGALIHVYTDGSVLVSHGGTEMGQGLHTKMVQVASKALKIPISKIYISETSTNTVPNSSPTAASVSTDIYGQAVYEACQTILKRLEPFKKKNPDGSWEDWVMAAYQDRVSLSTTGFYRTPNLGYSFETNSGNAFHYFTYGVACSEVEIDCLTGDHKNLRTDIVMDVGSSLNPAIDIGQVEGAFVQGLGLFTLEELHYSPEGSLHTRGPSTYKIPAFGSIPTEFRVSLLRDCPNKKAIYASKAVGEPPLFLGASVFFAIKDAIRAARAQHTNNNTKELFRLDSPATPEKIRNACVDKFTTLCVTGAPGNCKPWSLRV
Description: Inhibition of XO was conducted according to the procedure described by Sowndhararajan et al., with slight modifications. […] Prior to the addition of XO solution in the mixture, all the components were incubated at 25 °C in the dark for 5 min. […] The enzymatic activity assay without extract was defined as maximum relative activity, and the percentage of inhibition was calculated according to the method of Yan et al. IC50 values were determined using linear regression and are expressed in µg/mL of plant extract ± standard deviation. All measurements were performed in triplicate (n = 3).

[2] = system: xanthine oxidase (XO); assay: HPTLC xanthine oxidase bioautography (NBT/formazan); assay type: biochemical; details: for XO inhibitory activity on HPTLC bioautography plate (spot intensity): white/yellow spots on purple background, 1 mg/mL, 20 µL applied
Description: As the spectrophotometer analysis monitors the production of uric acid from xanthine, the HPTLC method measures the production of the superoxide radical anion formed during the regeneration of an enzyme. In contact with superoxide radical anion, the Nitro Blue Tetrazolium (NBT) is transformed in formazan (purple), inducing a change in the color of the reaction mixture. The inhibitors will appear as white/yellow spots under a purple background.
The samples were prepared by dissolving 1 mg of each fraction in 1 mL of methanol, and 20 µL was applied on 8 mm bands, 8 mm from the lower edge of the plate. The mobile phase was a mixture of ethyl acetate, dichloromethane, formic acid, acetic acid, and water (100:25:10:10:11). […] After development, plates were dried under a stream of cool air for 10 min.
The XO inhibition assay was conducted using the method developed by Ramallo [32], with slight modifications. After migration, the plates were dipped into a solution of PBS 120 mM containing xanthine oxidase (0.1 U/mL), EDTA (1 mM), and NBT (1 mM) in a sterilizer, at 37 °C in the dark for 30 min. The plates were then dipped into a solution of PBS 120 mM containing xanthine (1.5 mM) in a sterilizer, at 37 °C for 30 min in the dark.

[3] = system: xanthine oxidase (XO); assay: Measurement of XO interaction by HPLC (crude extract incubated with and without enzyme); assay type: binding; details: crude extract 1 mg/mL, XO 0.1 U/mL, 1 h; for Interaction with XO (HPLC subtraction, negative peaks): HPLC-UV 254 nm; for XO binding (%): estimated from difference of peak area with and without XO
Description: The identification of bioactive compounds which form in a complex mixture by rapid screening, without the requirement of purification, is a challenging approach. […] Based on the method described by Wang, we incubated the enzyme with the crude extract and carried out HPLC analyses on the filtrate after centrifugation.
The measurement of XO interaction was conducted according to Zhang’s procedure, with some modifications. The assay mixture contained 10 mL of crude extract at 1 mg/mL in water, and 200 µL of xanthine oxidase (final concentration of 0.1 U/mL), or 200 µL of water. Prior to the HPLC analysis, the solution was mixed for one hour at room temperature in the dark. After one hour, the mixture was centrifuged at 4500× g […] and supernatant was filtered through a 0.45 µm PTFE filter. […] Potential inhibitors were identified after subtraction of the chromatogram obtained from the assay with and without XO (negative peaks).

[4] = Stability in solution for the XO assay; assay type: physicochemical
[5] = target: xanthine oxidase (XO); parameters: method as in doi:10.5539/jfr.v1n3p257, doi:10.1016/j.bjp.2015.08.013; details: described to possess no inhibitory activity; read-out: IC50, XO inhibition (described); cited from earlier work
[6] = Solubility for the XO assay; assay type: physicochemical; details: in water or DMSO
[7] = UV spectroscopy, xanthine 56 µM, XO 0.01 U/mL, 25 °C, n = 3, read-out: IC50 (µM), XO inhibition
[8] = UV spectroscopy, xanthine 56 µM, XO 0.01 U/mL, 25 °C, n = 3, read-out: IC50 (µg/mL), XO inhibition (converted)

O=c1c(O[C@@H]2O[C@H](CO)[C@H](O)[C@H](O)[C@H]2O)c(-c2ccc(O)c(O)c2)oc2cc(O)cc(O)c12 [Hyperoside]
IC50 [1, 7]: > 50 µM
IC50 [1, 8]: > 215 µM
XO inhibitory activity on HPTLC bioautography plate (spot intensity) [2]: weak interactions
Interaction with XO (HPLC subtraction, negative peaks) [3]: did not seem to interact

O=C(OC1O[C@@H]2COC(=O)c3cc(O)c(O)c(O)c3-c3c(cc(O)c(O)c3O)C(=O)O[C@H]2[C@H](OC(=O)c2cc(O)c(O)c(O)c2)[C@H]1OC(=O)c1cc(O)c(O)c(O)c1)c1cc(O)c(O)c(O)c1 (stereo partly drawn) [Tellimagrandin II]
Stability on the HPTLC plate [2]: decompose on the plate
XO inhibitory activity on HPTLC bioautography plate (spot intensity) [2]: weak activity
Interaction with XO (HPLC subtraction, negative peaks) [3]: strongest interaction
XO binding (%) [3]: around 30%
Stability in solution [4]: decomposed in the solution

O=C(O)c1cc(O)c(O)c(O)c1 [Gallic acid]
IC50 [1]: > 50 µM
IC50 [1, 8]: > 1760 µM
IC50 [5]: > 100 µM

O=c1c(O)c(-c2ccc(O[C@@H]3O[C@H](CO)[C@@H](O)[C@H](O)[C@H]3O)cc2)oc2cc(O)cc(O)c12 [Kaempferol-4′-O-glucoside]
Interaction with XO (HPLC subtraction, negative peaks) [3]: significant interactions

O=C(O)c1ccccc1O [Salicylic acid]
IC50 [1, 7]: > 50 µM
IC50 [1, 8]: > 2170 µM
IC50 [5]: > 100 µM

O=c1c(O)c(-c2ccc(O[C@@H]3O[C@H](CO)[C@@H](O)[C@H](O)[C@H]3O)c(O)c2)oc2cc(O)cc(O)c12 [Spiraeoside]
IC50 [1, 7]: 0.66 ± 0.02 µM
IC50 [1, 8]: 0.668 µM
XO inhibitory activity relative to allopurinol ([1]; activity higher than allopurinol): around 25 times
XO inhibitory activity on HPTLC bioautography plate (spot intensity) [2]: quite strong inhibitors; also recorded: strong interactions
Interaction with XO (HPLC subtraction, negative peaks) [3]: significant interactions
XO binding (%) [3]: around 30%

O=c1c(O)c(-c2ccc(O)c(O)c2)oc2cc(O)cc(O)c12 [Quercetin]
XO inhibitory activity on HPTLC bioautography plate (spot intensity) [2]: quite strong inhibitors; also recorded: strong interactions
Interaction with XO (HPLC subtraction, negative peaks) [3]: seem to interact
XO binding (%) [3]: ~50%

O=c1oc2c(O)c(O)cc3c(=O)oc4c(O)c(O)cc1c4c23 [Ellagic acid]
Stability on the HPTLC plate [2]: decompose on the plate
XO inhibitory activity on HPTLC bioautography plate (spot intensity) [2]: weak activity
Solubility [6]: not soluble

O=c1c(O)c(-c2ccc(O)cc2)oc2cc(O)cc(O)c12 [Kaempferol]
XO inhibitory activity on HPTLC bioautography plate (spot intensity) [2]: quite strong inhibitors; also recorded: strong interactions
Interaction with XO (HPLC subtraction, negative peaks) [3]: seem to interact

O=c1c(O[C@@H]2O[C@H](CO)[C@@H](O)[C@H](O)[C@H]2O)c(-c2ccc(O)c(O)c2)oc2cc(O)cc(O)c12 [Isoquercitrin]
IC50 [1, 7]: > 50 µM
IC50 [1, 8]: > 215 µM
XO inhibitory activity on HPTLC bioautography plate (spot intensity) [2]: weak interactions
Interaction with XO (HPLC subtraction, negative peaks) [3]: did not seem to interact

O=C(O[C@@H]1O[C@@H]2COC(=O)c3cc(Oc4c(C(=O)O[C@@H]5O[C@@H]6COC(=O)c7cc(O)c(O)c(O)c7-c7c(cc(O)c(O)c7O)C(=O)O[C@H]6[C@H](OC(=O)c6cc(O)c(O)c(O)c6)[C@H]5OC(=O)c5cc(O)c(O)c(O)c5)cc(O)c(O)c4O)c(O)c(O)c3-c3c(cc(O)c(O)c3O)C(=O)O[C@H]2[C@H](OC(=O)c2cc(O)c(O)c(O)c2)[C@H]1OC(=O)c1cc(O)c(O)c(O)c1)c1cc(O)c(O)c(O)c1 [Rugosin D]
IC50 (µg/mL), XO inhibition ([1]; UV spectroscopy, xanthine 56 µM, XO 0.01 U/mL, 25 °C, n = 3): 67.0 ± 1.1 µg/mL (≈ 35.7 µM)
IC50 [1, 7]: 35.7 ± 2.1 µM
XO inhibitory activity on HPTLC bioautography plate (spot intensity) [2]: strong interactions
Interaction with XO (HPLC subtraction, negative peaks) [3]: strongest interaction
XO binding (%) [3]: around 60%
